According to publication PMC5897276, “External radiation exposure, excretion, and effective half-life in ^177Lu-PSMA-targeted therapies” (EJNMMI Research, 2018):
Values joined by “and” are separate entries in the source; they are usually repeats but may differ in a detail not shown here. Equal values may be shown once. Marks after values point to notes of the source that are not given here.

Assay: Whole-body dose rate measurement at a distance of 2 m and calculation of effective half-life
Type: in vivo, patients
Conditions: for Calculated effective half-life T1/2eff, max / Calculated effective half-life T1/2eff, mean / Calculated effective half-life T1/2eff, min: mono-exponential fit of dose rate
Experimental: The measurements and analyses were carried out with 50 patients from both departments as characterized in Table 1. All patients of Department 2 were released from the hospital 72 h p. i. for organizational reasons. Therefore, dose rate measurements were also available for ti = 72 h p. i.
In both departments, the dose rate monitor LB 123 D-H10 (Berthold Technologies, Bad Wildbad, Germany) was used, which is suitable for dose rate levels between 0.05 μSv/h and 10 mSv/h within an energy range from 30 keV to 1.3 MeV. The systems were officially calibrated, and regular quality checks were carried out. The patients were measured in the standing position from the anterior (DRA) and posterior (DRP) view at a distance of 2 m from the surface of the detector. The dose rate DR for different time points (see Table 1) was then calculated as the geometric mean of both measurements5 DRti=DRAti∙DRPti.
The data were fitted by a mono-exponential curve, and the effective half-life was calculated for the different time points: 24, 48, and 72 h (only from the data of Department 2). […] For all comparisons, the time point 48 h was chosen as the reference, because it is standard that the patients are released from the therapy ward after 48 h. Subsequently, Eq. 4 was used to determine the dose D to the public after the discharge of the patient for different time points of release (24, 48, and 72 h p. i.), substituting T1/2eff by T1/2ind (individual half-life of each patient), T1/2phys (physical half-life of ^177Lu), and T1/2max (maximum of the calculated effective half-life of the patient cohort) for different calculations. In addition, a correlation analysis (Spearman and Pearson) of the dose rate and administered activity was performed.

[1] = time point 24.2 ± 0.7 h (from 2 h/4 h and 24 h)
[2] = time point 67.7 ± 2.3 h (72 h; from 24, 48 and 72 h), 25 patients (Department 2)
[3] = time point 45.7 ± 2.1 h p. i. (48 h)
[4] = time point 67.7 ± 2.3 h p. i. (72 h), 25 patients (Department 2)

In the case of `O=C([O-])CN1CCN(CC(=O)[O-])CCN(CC(=O)NCC2CCC(C(=O)N[C@@H](Cc3ccc4ccccc4c3)C(=O)NCCCC[C@H](NC(=O)N[C@@H](CCC(=O)O)C(=O)O)C(=O)O)CC2)CCN(CC(=O)[O-])CC1.[177Lu+3]` (stereo partly drawn) [^177Lu-PSMA-617], the “Calculated effective half-life T1/2eff, max” value [1] is reported as 73.5 h, the “Calculated effective half-life T1/2eff, mean” value [1] is reported as 26.0 h and the “Calculated effective half-life T1/2eff, min” value [1] is reported as 11.0 h. For the same compound, the “Calculated effective half-life T1/2eff, min” value (time point 45.7 ± 2.1 h (48 h; from 24 h and 48 h)) was 21.7 h, the “Calculated effective half-life T1/2eff, max” value [2] was 74.5^a h and the “Calculated effective half-life T1/2eff, mean” value [2] was 38.4^a h. For the same compound, the “Calculated effective half-life T1/2eff, min” value [2] was 25.7^a h, the “Dose rate (measured at a distance of 2 m), max” value (from here on “Dose rate … max”) (time point 2 ± 0.3 h p. i.) was 5.0 μSv/h and the “Dose rate (measured at a distance of 2 m), mean” value (from here on “Dose rate … mean”) (time point 2 ± 0.3 h p. i.) was 3.6 ± 0.7 μSv/h and 3.6 μSv/h. The “Dose rate (measured at a distance of 2 m), min” value (shortened to “Dose rate … min”) (time point 2 ± 0.3 h p. i.) was 2.2 μSv/h, the “Dose rate … max” value (time point 3.9 ± 0.7 h p. i.) was 3.8 μSv/h and the “Dose rate … mean” value (time point 3.9 ± 0.7 h p. i.) was 2.8 μSv/h. The “Dose rate … min” value (time point 3.9 ± 0.7 h p. i.) was 1.3 μSv/h, the “Dose rate … mean” value (time point 24.2 ± 0.7 h p. i.) was 1.6 ± 0.6 μSv/h and 1.6 μSv/h and the “Dose rate … min” value (time point 24.2 ± 0.7 h p. i.) was 0.5 μSv/h. The “Dose rate … max” value [3] was 2.3 μSv/h, the “Dose rate … mean” value [3] was 1.1 ± 0.5 μSv/h and 1.1 μSv/h and the “Dose rate … min” value [3] was 0.4 μSv/h. For the same compound, the “Dose rate … max” value [4] was 2.1^a μSv/h, the “Dose rate … mean” value [4] was 0.7 ± 0.4 μSv/h and 0.7^a μSv/h and the “Dose rate … min” value [4] was 0.1^a μSv/h.
